Square brackets hold non-standard residues; d marks the D form. Peptide text beside a SMILES is read from it.
Tests used:
[1] = system: Staphylococcus aureus ATCC 29213; conditions: Tables 22-23
[2] = system: Human red blood cells (RBCs); assay: Hemolytic activity; type: cell-based; conditions: at 100 μg/ml, Tables 22-23
[3] = system: Candida albicans ATCC 10231; conditions: Tables 22-23
[4] = system: Escherichia coli ATCC 25922; conditions: Tables 22-23
[5] = system: Streptococcus sanguis ATCC 10556; conditions: Tables 22-23
Protocol: Streptococcus sanguis ATCC 10556 (Gram-positive (+) bacteria present in tooth crevices) was grown overnight at 37° C. in Brain Heart Infusion (BHI) broth. This culture was reinoculated and incubated at 37° C. to reach the exponential phase of bacteria growth, i.e., a final bacterial suspension containing 10^5 to 5×10^5 colony-forming units (CFU)/ml. The concentration of cells was established by plating 100 μl of different dilutions of the culture solution (e.g., 10^-2, 10^-4) and 10^-4) onto solid agar plates. Following an overnight incubation at 37° C., the CFU thus formed were counted on each agar plate. In 96-well tissue culture plates, as control blanks, eight wells per plate contained only medium, while as a positive growth control, eight other wells contained medium plus cells. […] The plates were incubated overnight at 37° C., and the optical density (OD) determined at 620 nm after 20 to 24 hours incubation.

P. aeruginosa ATCC 27853 = assay: Antimicrobial assay, P. aeruginosa; conditions: Tables 22-23
Protocol: Escherichia coli ATCC 25922 and P. aeruginosa ATCC 27853 were used as Gram-negative (-) and Staphylococcus aureus ATCC 29213 as Gram-positive (+) bacteria. Bacteria were grown overnight at 37° C. in Mueller-Hinton (MH) broth. This culture was reinoculated and incubated at 37° C. to reach the exponential phase of bacteria growth, i.e., a final bacterial suspension containing 10^5 to 5×10^5 colony-forming units (CFU)/ml. The concentration of cells was established by plating 100 μl of different dilutions of the culture solution (e.g., 10^-2, 10^-3 and 10^-4) onto solid agar plates.
Following an overnight incubation at 37° C., the CFU thus formed were counted on each agar plate. In 96-well tissue culture plates, as control blanks, eight wells per plate contained only medium, while as a positive growth control, eight other wells contained medium plus cells.
The plates were incubated overnight at 37° C., and the optical density (OD) determined at 620 nm after different times of incubation.

Compound	IC50 (μg/ml) against S. aureus [1] [µg/mL]	% hemolysis at 100 μg/ml [2] [%]	IC50 (μg/ml) against C. albicans [3] [µg/mL]	IC50 (μg/ml) against E. coli [4] [µg/mL]	IC50 (μg/ml) against S. sanguis [5] [µg/mL]	IC50 (μg/ml) against P. aeruginosa (P. aeruginosa ATCC 27853) [µg/mL]
CC(=O)N[C@H](CCCNC(=N)N)C(=O)N[C@H](CCCNC(=N)N)C(=O)N[C@H](Cc1c[nH]c2ccccc12)C(=O)N[C@H](Cc1c[nH]c2ccccc12)C(=O)N[C@H](CS)C(=O)N[C@H](CCCNC(=N)N)C(N)=O [Ac-rrwwcr-NH2] (Ac-[dR][dR][dW][dW][dC][dR]-NH2)	9 to 13	2.0	68 to 78	10 to 11	14 to 15	28 to 29
CC(=O)N[C@H](CCCNC(=N)N)C(=O)N[C@H](CCCNC(=N)N)C(=O)N[C@H](Cc1c[nH]c2ccccc12)C(=O)N[C@H](Cc1c[nH]c2ccccc12)C(=O)N[C@H](CS)C(=O)N[C@@H](C(N)=O)C(C)C [Ac-rrwwcv-NH2] (Ac-[dR][dR][dW][dW][dC][dV]-NH2)	16 to 19	10.0	107 to 119	9 to 10	7 to 8	58 to 88
Ac-RRWWCA-NH2 [Ac-RRWWCA-NH2]	35 to 40	2.2	193 to 210	21 to 23	60 to 70	97 to 98
Ac-RRWWCD-NH2 [Ac-RRWWCD-NH2]	> 125	0.3	> 1000	> 125	> 500	> 500
Ac-RRWWCE-NH2 [Ac-RRWWCE-NH2]	> 125	0.0	842 to 874	> 125	> 500	149
Ac-RRWWCF-NH2 [Ac-RRWWCF-NH2]	10 to 14	3.3	70 to 97	20 to 21	14 to 22	42 to 45
Ac-RRWWCG-NH2 [Ac-RRWWCG-NH2]	46 to 49	1.9	215 to 218	22 to 23	47 to 66	200
Ac-RRWWCH-NH2 [Ac-RRWWCH-NH2]	26 to 28	0.0	69 to 107	20 to 28	53 to 62	59 to 65
Ac-RRWWCI-NH2 [Ac-RRWWCI-NH2]	12 to 18	8.3	93 to 102	29 to 33	17 to 18	40 to 70
Ac-RRWWCK-NH2 [Ac-RRWWCK-NH2]	17 to 18	0.5	100 to 110	17 to 21	38 to 42	150
Ac-RRWWCM-NH2 [Ac-RRWWCM-NH2]	13 to 20	15	96 to 112	23 to 27	13 to 22	93 to 103
